The results in this text go back to PubChem BioAssay (NCI).

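Exposure lasted 48 hours, with cells grown in 96-well plates and compounds tested at five concentrations. TGI: total growth inhibition.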 A value given as a limit tells only on which side of the number the result lay.

Among the test systems are ACHN renal; CAKI-1 renal; HCT-116 colon; HOP-92 NSCLC; HS 578T breast; IGROV1 ovarian; MALME-3M melanoma; NCI-H460 lung; SF-268 CNS; SK-MEL-28 melanoma; SW-620 colon; T-47D breast; TK-10 renal; U251 CNS; MDA-MB-231 breast; NCI-H226 lung; NCI-H522 lung; OVCAR-3 ovarian; SF-539 CNS.
Test in all cases: growth of human tumour cells (NCI), 48 h

Turning to `C[N+]1(C)CCCC(C#N)(c2ccccc2)CC1` (centres undefined), the TGI in the experiment on ACHN renal, in the experiment on CAKI-1 renal, in the experiment on HCT-116 colon, in the experiment on HOP-92 NSCLC, in the experiment on HS 578T breast and with IGROV1 ovarian was greater than 100 µM in each case. Further, the TGI with MALME-3M melanoma, in the experiment on NCI-H460 lung, with SF-268 CNS, with SK-MEL-28 melanoma, in the experiment with SW-620 colon and in the experiment with T-47D breast was greater than 100 µM throughout. Besides, the TGI with TK-10 renal and in the experiment with U251 CNS was greater than 100 µM each time.
`Cc1cccc2c(=O)c3c(O)cc(O)cc3n(C)c12`: the TGI in the experiment with ACHN renal, in the experiment with CAKI-1 renal, in the experiment on HCT-116 colon, in the experiment on HOP-92 NSCLC, in the experiment on HS 578T breast and with IGROV1 ovarian was greater than 100 µM in each case. For the same compound, the TGI with MALME-3M melanoma, with MDA-MB-231 breast, with NCI-H226 lung, in the experiment on NCI-H460 lung, in the experiment with NCI-H522 lung and with OVCAR-3 ovarian was greater than 100 µM in each case. In addition, the TGI in the experiment on SF-268 CNS, in the experiment with SF-539 CNS, in the experiment on SK-MEL-28 melanoma, in the experiment on SW-620 colon, in the experiment on TK-10 renal and in the experiment with U251 CNS was greater than 100 µM in each case.
Turning to `CN(C)C(=O)C(F)(F)C(c1ccccc1Br)C1C(=O)N(C)C(=O)N(C)C1=O` (centres undefined), the TGI in the experiment with ACHN renal, with CAKI-1 renal, with HCT-116 colon, in the experiment with HOP-92 NSCLC, in the experiment with MALME-3M melanoma and in the experiment on MDA-MB-231 breast was greater than 100 µM in each case. The TGI in the experiment on NCI-H226 lung, with NCI-H460 lung, in the experiment with OVCAR-3 ovarian, in the experiment on SF-268 CNS, in the experiment with SK-MEL-28 melanoma and in the experiment with SW-620 colon was greater than 100 µM throughout. Moreover, the TGI in the experiment on T-47D breast, in the experiment with TK-10 renal and in the experiment with U251 CNS was greater than 100 µM each time.
Take `CC(C)c1cc(=O)[nH]c2cc(N)ccc12`: the TGI in the experiment on ACHN renal, in the experiment on CAKI-1 renal, with HCT-116 colon, in the experiment on HOP-92 NSCLC, in the experiment on IGROV1 ovarian and with MDA-MB-231 breast was greater than 100 µM each time. The TGI with NCI-H226 lung, in the experiment with NCI-H460 lung, in the experiment on OVCAR-3 ovarian, in the experiment with SF-539 CNS, in the experiment with SK-MEL-28 melanoma and in the experiment on SW-620 colon was greater than 100 µM throughout. Also, the TGI in the experiment on T-47D breast and with U251 CNS was greater than 100 µM in each case.
As for `CCOC(=O)C(O)(CC1=NC(C(=O)OC)(C(=O)OC)C(c2cccc(C=O)c2)O1)C(=O)OCC` (centres undefined), the TGI in the experiment with ACHN renal, with CAKI-1 renal, in the experiment with HCT-116 colon, in the experiment with HOP-92 NSCLC, with IGROV1 ovarian and with NCI-H226 lung was greater than 100 µM each time. In addition, the TGI in the experiment on NCI-H460 lung, with OVCAR-3 ovarian, in the experiment on SK-MEL-28 melanoma, in the experiment on SW-620 colon, in the experiment on T-47D breast and in the experiment with TK-10 renal was greater than 100 µM each time. The TGI in the experiment with U251 CNS was greater than 100 µM.
Turning to `C[C@]12CC[C@H]3[C@@H](CC=C4C[C@@H](O)CC[C@@]43C)[C@@H]1C/C(=C\c1cccnc1)[C@@H]2O`, the TGI in the experiment with ACHN renal is 32.2 µM; with HCT-116 colon, greater than 100 µM; in the experiment with HOP-92 NSCLC, 59.6 µM; with HS 578T breast it was 33.3 µM; in the experiment on IGROV1 ovarian it was greater than 100 µM; in the experiment with MALME-3M melanoma, greater than 100 µM. In addition, the TGI is 57.8 µM with MDA-MB-231 breast; 57.4 µM with NCI-H226 lung; greater than 100 µM in the experiment with NCI-H460 lung; 42.5 µM in the experiment with NCI-H522 lung; 81.6 µM in the experiment with SF-539 CNS; greater than 100 µM in the experiment on SK-MEL-28 melanoma. Also, the TGI in the experiment on SW-620 colon is greater than 100 µM; with TK-10 renal it was 66.8 µM; with U251 CNS, 28.7 µM.
As for `COCN1C(=O)[C@@H]2CCCN2C(=O)c2ccc(N)cc21`, the TGI in the experiment with ACHN renal, with CAKI-1 renal, with HCT-116 colon, in the experiment with HOP-92 NSCLC, in the experiment on HS 578T breast and in the experiment on IGROV1 ovarian was greater than 100 µM in each case. Moreover, the TGI in the experiment with MDA-MB-231 breast, in the experiment on NCI-H226 lung, with NCI-H460 lung, in the experiment with NCI-H522 lung, in the experiment on OVCAR-3 ovarian and with SF-268 CNS was greater than 100 µM in each case. Also, the TGI in the experiment on SF-539 CNS, with SK-MEL-28 melanoma, in the experiment on SW-620 colon, in the experiment on TK-10 renal and in the experiment on U251 CNS was greater than 100 µM each time.
Take `CCOc1ccc2nc(NC(=O)C(=O)C3C(=O)C(CC4C(=O)c5ccccc5C4=O)C(=O)CC3(C)C)sc2c1` (centres undefined): the TGI in the experiment on ACHN renal, in the experiment on CAKI-1 renal, with HCT-116 colon, with HOP-92 NSCLC, in the experiment on HS 578T breast and in the experiment with IGROV1 ovarian was greater than 100 µM each time. The TGI in the experiment on MDA-MB-231 breast, with NCI-H226 lung, in the experiment with NCI-H460 lung, with NCI-H522 lung, in the experiment with OVCAR-3 ovarian and in the experiment with SF-268 CNS was greater than 100 µM in each case. In addition, the TGI in the experiment with SF-539 CNS, in the experiment on SK-MEL-28 melanoma, in the experiment on SW-620 colon, with TK-10 renal and in the experiment with U251 CNS was greater than 100 µM in each case.
In the case of `S=C(NCc1ccccn1)N/N=C/c1ccccn1`, the TGI in the experiment with ACHN renal is 1.1 µM; in the experiment with CAKI-1 renal, 4.33 µM; in the experiment on HCT-116 colon, less than 0.01 µM; in the experiment on HS 578T breast, 70.1 µM; in the experiment on MALME-3M melanoma, 38.3 µM; in the experiment with NCI-H226 lung, 0.163 µM. In addition, the TGI in the experiment with NCI-H460 lung is 2.7 µM; with NCI-H522 lung it was 0.0713 µM; in the experiment with OVCAR-3 ovarian, greater than 100 µM; in the experiment with SF-268 CNS, greater than 100 µM; in the experiment on SF-539 CNS, 0.396 µM; in the experiment on SK-MEL-28 melanoma, greater than 100 µM. Also, the TGI in the experiment with SW-620 colon was greater than 100 µM; with T-47D breast it was greater than 61.5 µM; in the experiment on TK-10 renal it was greater than 100 µM; in the experiment on U251 CNS, greater than 60.2 µM.
